# “And” between values parts separate entries of the source, which are not always exact repeats. Equal entries are not always repeated.
# Tests used:
# [1] = can reach up; cited from earlier work
# [2] = biological target: T1, ΔPAS mutant EAG1 channels (deletion of PAS domain residues 2 to 130) (Mus musculus, UniProt Q60603); experiment: TEVC recording, imipramine inhibition, ΔPAS mutant; type: cell-based; settings: ΔPAS mutant EAG1 channel, +50 mV
# T1 construct: expressed in transfected cells; host or cells: Xenopus laevis oocytes injected with cRNA
# T1 sequence (Q60603 with tags, fused parts or gaps): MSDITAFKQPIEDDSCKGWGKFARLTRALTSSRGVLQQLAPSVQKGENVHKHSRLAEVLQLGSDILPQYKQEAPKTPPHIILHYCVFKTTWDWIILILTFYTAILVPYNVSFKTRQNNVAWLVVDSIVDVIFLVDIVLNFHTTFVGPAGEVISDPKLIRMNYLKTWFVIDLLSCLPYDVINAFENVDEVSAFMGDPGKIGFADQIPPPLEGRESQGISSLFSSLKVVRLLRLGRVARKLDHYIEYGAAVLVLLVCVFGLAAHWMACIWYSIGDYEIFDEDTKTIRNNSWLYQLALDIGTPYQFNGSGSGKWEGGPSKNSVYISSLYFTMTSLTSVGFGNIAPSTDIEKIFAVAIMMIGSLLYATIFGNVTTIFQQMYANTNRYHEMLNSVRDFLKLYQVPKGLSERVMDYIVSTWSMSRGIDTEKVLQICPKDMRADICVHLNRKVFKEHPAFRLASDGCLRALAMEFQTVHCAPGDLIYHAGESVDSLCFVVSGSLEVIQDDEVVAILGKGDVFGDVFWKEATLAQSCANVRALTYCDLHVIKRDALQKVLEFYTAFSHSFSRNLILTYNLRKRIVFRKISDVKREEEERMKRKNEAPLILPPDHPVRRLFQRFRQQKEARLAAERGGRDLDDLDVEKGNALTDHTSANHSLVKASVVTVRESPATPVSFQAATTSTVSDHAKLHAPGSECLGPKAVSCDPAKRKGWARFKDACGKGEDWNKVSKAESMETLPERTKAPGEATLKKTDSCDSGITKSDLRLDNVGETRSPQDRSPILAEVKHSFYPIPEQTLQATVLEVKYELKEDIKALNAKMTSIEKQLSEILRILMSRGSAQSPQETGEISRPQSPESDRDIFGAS
# Text: (§1) The cDNA encoding wild-type (WT) mouse EAG1 channels in pGH19 vector was kindly provided by G. Robertson (University of Wisconsin-Madison, Madison, WI). The mutant ΔPAS EAG1 channel in pGH19 with the deletion of the PAS domain residues 2 to 130 was generated by Bio Basic Inc and verified by DNA sequencing (Genewiz). Mutant EAG1 channels with single amino acid substitutions were generated by Genewiz and verified by DNA sequencing. cRNA was transcribed using the T7 mMessage mMachine kit (Thermo Fisher Scientific). Defolliculated Xenopus laevis oocytes were purchased from Ecocyte Bioscience or Xenopus1 and injected with the cRNA using a Nanoinject II oocyte injector (Drummond).
# (§2) For EAG1 current recordings, oocytes were placed into a handmade chamber containing a bath solution for the current recording. The currents were recorded using a TEVC technique with OC-725C amplifier (Warner Instruments) and pClamp11 software (Molecular Devices). The signals were digitized using Digidata 1550 (Molecular Devices). Patch pipettes were pulled from borosilicate glass and had resistances of 0.7 to 1.5 MΩ. The recording (bath) solution contained 96 mM NaCl, 4 mM KCl, 0.1 mM CaCl2, 1.8 mM MgCl2, and 5 mM HEPES, pH 7.5. The pipette solution contained 3 M KCl. […]
# [3] = biological target: T2, R84G mutant EAG1 channels (Mus musculus, UniProt Q60603, R84G); experiment: TEVC recording, imipramine inhibition, R84G mutant; type: cell-based; settings: R84G mutant EAG1 channel, +50 mV
# T2 construct: expressed in transfected cells; host or cells: Xenopus laevis oocytes injected with cRNA
# T2 sequence (Q60603 1-989 R84G): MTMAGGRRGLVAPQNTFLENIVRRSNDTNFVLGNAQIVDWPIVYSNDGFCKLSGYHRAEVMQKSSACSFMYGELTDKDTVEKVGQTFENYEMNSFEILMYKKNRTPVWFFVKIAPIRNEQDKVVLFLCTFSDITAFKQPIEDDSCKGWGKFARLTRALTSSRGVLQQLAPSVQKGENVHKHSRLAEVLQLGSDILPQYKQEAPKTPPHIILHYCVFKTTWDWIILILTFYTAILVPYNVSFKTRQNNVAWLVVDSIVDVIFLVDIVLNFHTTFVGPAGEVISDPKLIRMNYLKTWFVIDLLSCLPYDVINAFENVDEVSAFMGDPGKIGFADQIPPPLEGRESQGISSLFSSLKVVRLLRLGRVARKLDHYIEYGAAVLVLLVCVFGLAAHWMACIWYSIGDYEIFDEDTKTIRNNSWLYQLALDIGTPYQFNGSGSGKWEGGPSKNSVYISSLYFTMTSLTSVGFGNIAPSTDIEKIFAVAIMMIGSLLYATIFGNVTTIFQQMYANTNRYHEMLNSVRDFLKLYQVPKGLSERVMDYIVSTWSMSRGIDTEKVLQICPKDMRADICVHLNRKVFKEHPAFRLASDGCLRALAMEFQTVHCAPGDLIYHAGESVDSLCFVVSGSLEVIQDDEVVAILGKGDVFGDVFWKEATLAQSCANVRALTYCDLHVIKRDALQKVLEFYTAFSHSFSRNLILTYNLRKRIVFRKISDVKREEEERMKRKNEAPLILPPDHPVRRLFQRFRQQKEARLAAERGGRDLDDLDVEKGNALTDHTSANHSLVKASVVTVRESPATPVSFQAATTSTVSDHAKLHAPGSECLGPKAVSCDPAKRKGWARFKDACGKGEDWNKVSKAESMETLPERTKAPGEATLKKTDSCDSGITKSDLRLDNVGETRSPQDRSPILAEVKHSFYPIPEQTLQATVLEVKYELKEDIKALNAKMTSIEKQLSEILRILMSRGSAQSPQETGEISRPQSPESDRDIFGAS
# Text: as §1, §2
smiles,measurement,setting,value
CN(C)CCCN1c2ccccc2CCc2ccccc21 [imipramine],Plasma levels of imipramine observed in patients,[1],≤ 300 ng/ml and ≤ 1 μM
same,IC50,[2],109 ± 12.6 µM
same,IC50,[3],92.6 ± 2.7 µM

# Reference: article PMC10687071 (The Journal of Biological Chemistry, 2023)
